Read-outs that look alike come from different tables or passages of the source.
Columns and labels:
THP1 cells = test: Inhibition of binding and accumulation of cyanine 3-marked LDLox as lipid vesicles in differentiated THP1 macrophage cells; type: cell-based
Description: The culture medium may be replaced every two days.
In the present example, the accumulation of lipid vesicles within the cell was measured using THP1 cells following fixation with paraformaldehyde in PBS medium using a solution containing a fluorescent marker of the Oil Red O type in order to visualise the vesicles. The image of the cells rich in vesicles was analysed using a microscope ecqluipped with a CCD camera and software necessary for the analysis.
The medium was replaced every 2-3 days.
The differentiated THP-1 were subsequently incubated with LDLox coupled with cyanine-3 (1.5 μg/ml) in the presence or absence of the molecule CGP02-01 (concentrations of between 10^−5M and 3.1.6 10^−10M) for 24 hours at 37° C., 5% CO2. […] Each image was analysed and quantified with the MetaMorph software (Universal Imaging).

ApoE −/− mice [1] = test: Free cholesterol in plasma, ApoE −/− mice on normal non-enriched dietary regimen; type: in vivo; conditions: 1 mg/kg; 3 months; p<0.05
Excerpt: (§1) Firstly, mice devoid of the coding gene for Apo lipoprotein E (ApoE −/−) have been used. These mice represent a model of choice of studying early atherosclerosis and development of a plaque rich in foamy macrophages. Male C57BL/6J mice homozygote for deletion of the ApoE gene were subjected to a normal dietary regimen until the age of eight weeks. These mice (n=8 per group) subsequently received ad libitum and for 12 weeks either a dietary regimen not enriched with cholesterol or fat, or an enriched regimen, containing 1.5 g/kg of cholesterol and 200 g/kg of fat of milk origin. The untreated mice underwent daily intraperitoneal injections of a solution containing DMSO at 10%. The treated mice received by intraperitoneal injection the same solution containing 2 or 20 μg (i.e. 0.1 mg/kg/day or 1 mg/kg/day) of the compound CGP 02-01. Following the blood sample for the biochemical analyses, the mice were killed.
Measurement of free cholesterol may be performed by an enzymatic method. The free cholesterol is oxidised by cholesterol oxidase into Delta 4 cholestenon and simultaneously produces hydrogen peroxide. The hydrogen peroxide subsequently allows oxidative condensation of the DHESA and the aminoantipyrinre, producing a blue colour. The quantity of free cholesterol is subsequently measured by the absorbance of the blue colour. […]

ApoE −/− mice [2] = test: Total cholesterol in plasma, ApoE −/− mice on dietary regimen rich in cholesterol; type: in vivo; conditions: for Plasma total cholesterol level: untreated 7.27 ± 0.55
Excerpt: as §1, with “The treated mice received by intraperitoneal injection the same solution containing 2 or 20 μg (i.e. 0.1 mg/kg/day or 1 mg/kg/day) of the compound CGP 02-01.” left out
The circulating total cholesterol may be measured by enzymatic assay using the commercially available kit. This assay may for example use an enzymatic sequence of the cholesterol-esterase/cholesteroloxydase/chromogenic peroxidase type. In summary, the total esterified cholesterol is transformed into free cholesterol and fatty acid by the action of cholesterol esterase. The non-esterified cholesterol is subsequently measured by the formation of quinoeimine in the presence of cholesterol oxidase and peroxidise. The intensity of the quinoneimine coloration is proportional to the quantity of cholesterol present in the sample.
When mice are subjected to a dietary regimen rich in cholesterol, the total cholesterol level decreases from a value of 7.27±0.55 g/L to a value of 6.86±0.65 g/L, i.e. a variation of 5.6%. This effect observed is dependent on the dose of CGP 02-01.

Wistar rats = test: Total cholesterol in plasma, rats on dietary regimen rich in fructose; type: in vivo; conditions: 50 mg/kg oral, 3 weeks of treatment
Description: Secondly, the activity of the compound CGP 02-01 was studied using a reference rat-fructose model. Groups of Wistar rats (n=12) were subjected for 3 weeks to a dietary regimen containing […] of fructose. Under these conditions, the rats develop a metabolic syndrome comprising hyperglycaemia, hyperinsulinaemia, hypercholesterolaemia and hypertriglyceridaemia. Groups of rats subsequently received by forced feeding 50 mg/kg of the compound CGP 02-01 dissolved in a 2% tween solution prepared in methylcellulose. The blood samples for the biochemical analyses were performed after 1, 2 and 3 weeks. Independent groups of rats wee treated under the same conditions with metformin hydrochloride at a dose of 50 mg/kg. The metformin served as a reference in this metabolic syndrome model. The circulating total cholesterol may be measured by enzymatic assay using the commercially available kit. This assay may for example use an enzymatic sequence of the cholesterol-esterase/cholesteroloxydase/chromogenic peroxidase type. In summary, the total esterified cholesterol is transformed into free cholesterol and fatty acid by the action of cholesterol esterase. The non-esterified cholesterol is subsequently measured by the formation of quinoeimine in the presence of cholesterol oxidase and peroxidise. The intensity of the quinoneimine coloration is proportional to the quantity of cholesterol present in the sample.

ApoE −/− mice [3] = test: HDL level in plasma, ApoE −/− mice on regimen rich in cholesterol; type: in vivo
Excerpt: as §1, with “The treated mice received by intraperitoneal injection the same solution containing 2 or 20 μg (i.e. 0.1 mg/kg/day or 1 mg/kg/day) of the compound CGP 02-01.” left out
The plasma HDL level is measured by tried and trusted commercial methods which use high density lipoprotein separation reagents and by measurement of the cholesterol level associated with these high molecular weight lipoproteins (Biomérieux kit ref. 61533 for example).

ApoE negative mice = test: Weight gain / abdominal fatty mass in ApoE negative mice on normal regimen; type: in vivo; conditions: 20 μg per day for 41 days; normal dietary regimen; FIG. 2
Description: The mice were treated for 41 days at a dose of 20 μg of compound CGP02-01 per day. The control mice and the treated mice were fed with a normal dietary regimen without any cholesterol overload.

For `COc1cc(O)c(/C=N/NC(=O)c2cc3ccccc3s2)c(OC)c1` [CGP02-01, N′-[(1E)-(2-hydroxy-4,6-dimethoxyphenyl)methylene]-1-benzothiophene-2-carbohydrazide], the “Inhibition of the accumulation of lipid vesicles” value (THP1 cells; 1 μM, differentiated THP1 macrophage cells) was “major inhibition”, the inhibition at 2.5 µM (THP1 cells; Homo sapiens, THP-1, cells expressing the scavenger CD36, lipoproteins marked with cyanine 3, read-out: Inhibition of accumulation of LDLox in (%)) was 76% and the IC50 (THP1 cells; Homo sapiens, THP-1, lipoproteins marked with Cyanine 3, dose response curve, FIG. 1, read-out: CI50, accumulation of lipid vesicles in macrophage cell) was 500 nM. The inhibition at 2.5 µM (THP1 cells; Homo sapiens, THP-1 cells, 24 hours, read-out: Inhibition at 2.5 μM on THP-1 cells (24 hours)) was 76%, the “Effect on plasma free cholesterol variation vs untreated” value (ApoE −/− mice [1]) was 22.7% and the “Plasma total cholesterol level” value (ApoE −/− mice [2]; 0.4 mg/kg) was 8.08 ± 0.62 g/L. For the same molecule, the “Variation of total cholesterol level vs untreated” value (ApoE −/− mice [2]; 1 mg/kg, 3 months) was 5.6%, the “Plasma total cholesterol level” value (ApoE −/− mice [2]; 1 mg/kg, 3 months) was 6.86 ± 0.65 g/L and the “Reduction in total cholesterol” value (Wistar rats) was 54.5%. The “Plasma total cholesterol level” value (Wistar rats; control 0.79±0.05) was 0.36 ± 0.03 g/L, the “Plasma HDL level” value (ApoE −/− mice [3]; 0.1 mg/kg, cholesterol-rich regimen, untreated 0.11 ± 0.05) was 0.15 ± 0.06 g/L and the “Plasma HDL level” value (ApoE −/− mice [3]; 1 mg/kg, cholesterol-rich regimen, untreated 0.11 ± 0.05) was 0.15 ± 0.05 g/L. The “Variation of plasma HDL level” value (ApoE −/− mice [3]; regimen rich in cholesterol and fatty acid) was 38.2%, the “Plasma HDL level” value (ApoE −/− mice [3]; regimen rich in cholesterol and fatty acid, dose not stated, control 0.11±0.005) was 0.15 ± 0.005 g/L and the “Weight gain (abdominal fatty mass)” value (ApoE negative mice) was “reduction in weight gain”.
